Results as given in the supplement of paper PMC5908809.

Columns and labels:
[1] = test system: normal NK cells expanded with K562-aAPC; experiment: percent inhibition of viability; higher = more inhibition; conditions: 72 h, IL-2 2.5 ng/mL
Protocol: (§1)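 Drug sensitivity and resistance testing on K562-aAPC-expanded normal NK cells: 5 concentrations (10-fold steps over a 10,000-fold range), 72 h at 37 °C, viability by CellTiter-Glo normalised to DMSO and benzethonium chloride controls; DSS from the fitted curve.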

[2] = test system: DERL-7 (IL-2 2.5 ng/mL); experiment: as above; conditions: 72 h
[3] = test system: IMC-1 (IL-2 20 ng/mL); experiment: as above; conditions: 72 h
[4] = test system: KAI3 (IL-2 2.5 ng/mL); experiment: as above; conditions: 72 h
[5] = test system: KHYG-1 (IL-2 2.5 ng/mL); experiment: as above; conditions: 72 h
[6] = test system: NK-92 (IL-2 2.5 ng/mL); experiment: as above; conditions: 72 h
[7] = test system: NK-YS (IL-2 2.5 ng/mL); experiment: as above; conditions: 72 h
[8] = test system: NKL (IL-2 2.5 ng/mL); experiment: as above; conditions: 72 h
[9] = test system: SNK-6 (IL-2 2.5 ng/mL); experiment: as above; conditions: 72 h
[10] = test system: YT (IL-2 2.5 ng/mL); experiment: as above; conditions: 72 h
[11] = test system: normal primary NK cells, pool 1 (3 donors) (IL-2 2.5 ng/mL); experiment: as above; conditions: 72 h
[12] = test system: normal primary NK cells, pool 1 (3 donors), resting (IL-2 0 ng/mL); experiment: as above; conditions: 72 h
[13] = test system: normal primary NK cells, pool 2 (3 donors) (IL-2 2.5 ng/mL); experiment: as above; conditions: 72 h
[14] = test system: normal primary NK cells, pool 3 (3 donors) (IL-2 2.5 ng/mL); experiment: as above; conditions: 72 h
[15] = test system: normal NK cells expanded with K562-aAPC; experiment: drug sensitivity score (DSS) (DSS units); higher = more sensitive; extreme values may be limits of the assay; conditions: 72 h; IL-2 2.5 ng/mL
Protocol: as §1

[16] = test system: DERL-7 (IL-2 2.5 ng/mL); experiment: as above; conditions: 72 h
[17] = test system: IMC-1 (IL-2 20 ng/mL); experiment: as above; conditions: 72 h
[18] = test system: KAI3 (IL-2 2.5 ng/mL); experiment: as above; conditions: 72 h
[19] = test system: KHYG-1 (IL-2 2.5 ng/mL); experiment: as above; conditions: 72 h
[20] = test system: NK-92 (IL-2 2.5 ng/mL); experiment: as above; conditions: 72 h
[21] = test system: NK-YS (IL-2 2.5 ng/mL); experiment: as above; conditions: 72 h
[22] = test system: NKL (IL-2 2.5 ng/mL); experiment: as above; conditions: 72 h
[23] = test system: SNK-6 (IL-2 2.5 ng/mL); experiment: as above; conditions: 72 h
[24] = test system: YT (IL-2 2.5 ng/mL); experiment: as above; conditions: 72 h
[25] = test system: normal primary NK cells, pool 1 (3 donors) (IL-2 2.5 ng/mL); experiment: as above; conditions: 72 h
[26] = test system: normal primary NK cells, pool 1 (3 donors), resting (IL-2 0 ng/mL); experiment: as above; conditions: 72 h
[27] = test system: normal primary NK cells, pool 2 (3 donors) (IL-2 2.5 ng/mL); experiment: as above; conditions: 72 h
[28] = test system: normal primary NK cells, pool 3 (3 donors) (IL-2 2.5 ng/mL); experiment: as above; conditions: 72 h

Cn1cnc2c(F)c(Nc3ccc(Br)cc3Cl)c(C(=O)NOCCO)cc21 [Selumetinib] (max concentration tested 10000 nM)
percent inhibition of viability [%]
Conditions	1 nM	10 nM	100 nM	1000 nM	10000 nM
[1]	-5.33	-3.66	-3.4	-0.06	16.8
[2]	-4.06	8.89	24.4	38.2	51.5
[3]	-12.4	-11.4	-5.26	-4.59	17.3
[4]	6.76	0.73	4.04	12.1	29.3
[5]	1.06	-1.54	13.7	34.2	61.1
[6]	2.8	1.89	-10.2	-8.53	36.1
[7]	5.92	-5.87	0.1	1.88	27.9
[8]	-4.4	-0.32	26.8	39	72.7
[9]	-18.1	-10.6	-25.8	-31.2	-26.9
[10]	2.15	-4.23	-5.27	-0.32	16.7
[11]	-4.68	-3.55	18.9	23.4	19.1
[12]	-1.79	-0.33	21.2	18.2	16.7
[13]	-9.3	-7.88	3.43	19.3	18.2
[14]	-5.55	-8.58	-1.51	-0.3	13.4

Conditions	drug sensitivity score
[15]	0.36
[16]	10.2
[17]	0.24
[18]	2.27
[19]	7.98
[20]	1.3
[21]	1.42
[22]	10.8
[23]	0
[24]	0.33
[25]	5.53
[26]	5.28
[27]	2.98
[28]	0.11

COc1cc([C@@H]2c3cc4c(cc3[C@@H](O[C@@H]3O[C@@H]5CO[C@@H](c6cccs6)O[C@H]5[C@H](O)[C@H]3O)[C@H]3COC(=O)[C@H]23)OCO4)cc(OC)c1O [Teniposide] (max concentration tested 10000 nM)
percent inhibition of viability [%]
Conditions	1 nM	10 nM	100 nM	1000 nM	10000 nM
[1]	-1.49	7.42	51.3	59.8	99.4
[2]	5.54	34.5	94.9	80.3	99.3
[3]	-1.21	18.8	95.9	99.6	99
[4]	-5.63	32.8	80.1	75.3	92.2
[5]	1.47	13.1	91.5	102	94.4
[6]	-21.1	0.94	59.8	99.7	90.3
[7]	4.54	29.4	82.5	79.9	75.7
[8]	0.79	49.3	98.3	98.7	89.8
[9]	5.23	16.8	78.2	95.8	94.7
[10]	0.75	-4.25	36.1	95.3	91.5
[11]	2.23	-5.23	11.2	66.3	96.6
[12]	-23.6	-9.41	27.9	90.8	91.2
[13]	-11.9	-5.76	2.6	48.4	93.9
[14]	-13.8	-4.37	3.23	36.7	97

Conditions	drug sensitivity score
[15]	18.8
[16]	33.5
[17]	32.6
[18]	29.9
[19]	30.9
[20]	25
[21]	29.3
[22]	36.2
[23]	28.5
[24]	22.1
[25]	14
[26]	20.6
[27]	11
[28]	10.1
